Experimental data taken from patent US5739131A, “Benzene derivatives and pharmaceutical composition” (Kureha Chemical Industry Co., Ltd., priority 1994, dated 1998).

What was measured:
[1] = target: T1, angiotensin II receptor subtype 1 (AT1) (Oryctolagus cuniculus, UniProt P34976); assay: Binding assay, angiotensin II receptor subtype 1 (AT1); parameters: species or system rabbit (adrenal glands); conditions: for inhibition at 100 µM: AT1, rabbit adrenal glands
T1 construct: receptor: from adrenal glands in rabbits; from tissue; host or cells: rabbit adrenal glands
T1 sequence (P34976 1-359): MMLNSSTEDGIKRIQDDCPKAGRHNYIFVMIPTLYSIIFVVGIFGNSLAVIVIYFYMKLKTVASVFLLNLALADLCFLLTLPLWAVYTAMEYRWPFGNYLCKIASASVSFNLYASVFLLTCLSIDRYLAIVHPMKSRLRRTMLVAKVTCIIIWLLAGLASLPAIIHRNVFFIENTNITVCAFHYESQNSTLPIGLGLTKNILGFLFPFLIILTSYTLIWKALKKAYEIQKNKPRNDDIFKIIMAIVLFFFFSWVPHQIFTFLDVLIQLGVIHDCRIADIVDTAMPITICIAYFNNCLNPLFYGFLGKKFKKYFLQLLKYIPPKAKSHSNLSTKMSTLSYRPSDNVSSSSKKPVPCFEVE
Experimental: (§1) In this Example, the affinity to the angiotensin II receptor subtype 1 or subtype 2 was evaluated by a binding assay in accordance with the method described in Biochem. Pharmacol., 33, 4057-4062 (1984).
(§2) Specifically, the measurement of the total binding in the presence of each drug was performed as follows:
(§3) A mixture (final volume=0.25 ml) of a drug in a given concentration (the drug was dissolved in DMSO, and diluted to a double volume with a buffer attached to a drug discovery system to prepare sample for the assay; 0.025 ml), a tracer (0.025 ml), and receptors (0.2 ml) was incubated [in the case of the angiotensin II receptor subtype 1 (AT1), at room temperature for 3 hours, and in the case of the subtype 2 (AT2), at 37° C. for 1 hour]. Then, the reaction mixture was filtered with suction (GF/C filter was used in AT1, and GF/B filter was used in AT2). The filter papers after filtration with suction (the tracer bound to the receptors) were counted by a γ-well counter (ARC-500, Aloka). The non-specific bindings were measured by repeating the above method, except that a large excess amount of a displacer was added. The specific binding of the drug in the given concentration was calculated by subtracting the non-specific binding from the total binding, respectively.
(§4) In AT1 and AT2, the percentages to inhibit the bindings of radioactive ligands (tracer) to receptors by the drugs to be tested (IC50 value of concentration to show 50% inhibition, or binding inhibition % in 100 μM) were measured, using the drugs to be tested and control drugs in the given concentration.

[2] = target: T2, angiotensin II receptor subtype 2 (AT2) (Bos taurus, UniProt G5E6F7); assay: Binding assay, angiotensin II receptor subtype 2 (AT2); parameters: species or system bovine (cerebellar cortex); conditions: 100 μM, AT2, bovine cerebellar cortex, 37° C. 1 hour; read-out: Binding inhibition % in 100 μm, AT2
T2 construct: receptor: from cerebellar cortex in bovine; from tissue; host or cells: bovine cerebellar cortex
T2 sequence (G5E6F7 1-362): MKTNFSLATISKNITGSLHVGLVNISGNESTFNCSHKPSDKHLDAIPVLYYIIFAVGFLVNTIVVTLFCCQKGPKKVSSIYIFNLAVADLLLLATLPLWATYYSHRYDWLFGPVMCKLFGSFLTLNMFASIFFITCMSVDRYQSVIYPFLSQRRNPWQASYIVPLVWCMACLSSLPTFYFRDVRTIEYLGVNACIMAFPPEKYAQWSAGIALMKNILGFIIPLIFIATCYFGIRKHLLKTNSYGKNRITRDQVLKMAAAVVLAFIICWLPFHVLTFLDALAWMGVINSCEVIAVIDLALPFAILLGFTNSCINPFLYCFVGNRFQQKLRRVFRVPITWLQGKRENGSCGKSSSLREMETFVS
Experimental: as §1, §2, §3, §4
receptor: from cerebellar cortex in bovine
tracer: ^125 ITyr^4angiotensin II
control drug: angiotensin II (human)
(displacer): angiotensin II (human)

mice = assay: Acute toxicity, single oral dose; format: in vivo
Experimental: Five-week-old ICR female mice (5 mice per group) were bred for acclimation for a week. Then, the compounds of the present invention were dissolved or dispersed in an aqueous solution of 0.5% methylcellulose, and orally administered to the mice in a single dosage (500 mg/kg).

[3] = tested on: kidney disease model rats; assay: Action to depress blood pressure (tail cuff method); format: in vivo, Sprague-Dawley female rats; conditions: systolic, average, 20 mg/kg per os, two days from administration; control (water) 203
Experimental: The compounds of the present invention and the reference substance were forcedly administered per os to kidney disease model rats, and the action to depress blood pressure was observed. The kidney disease model rats were prepared by ligature of branches of renal artery in accordance with the conventional method, that is, the left hilum renalis of Sprague-Dawley female rats was exposed under anesthesia, and one of four secondary branches of renal artery was left unligated, while the remaining three branches were ligated, respectively. After a week, the hilum renalis (artery, vein, and ureter) of the right kidney were further ligated to thereby prepare the rats whose renal function was lowered to approximately 1/8 of the normal function. Each group consisted of eight rats. The drugs to be tested (20 mg/kg) were administered to each administering group, and only water was administered to control group. After two days from the administration, the systolic blood pressure was measured by the tail cuff method using a blood pressure measuring apparatus (UR5000; Ueda).

[4] = tested on: kidney disease model rats; assay: Action to survival time of kidney diseased animals; format: in vivo, Sprague-Dawley female rats; conditions: 20 mg/kg/day per os, observation eight weeks (upper limit); control 5.0
Experimental: The kidney disease model rats were prepared as in Example 115. Twenty-five groups (8 rats per group) were prepared in a manner so that there was no major difference between the groups in the serum creatinine value and the urea nitrogen value indicating renal function. The rats in each group were allowed to freely take up feed and water. […] To the rats in the control group, only water was forcedly administered per os every day. If kidney diseases are aggravated, the rat will die of uremia. Thus, the survival time was observed as comprehensive indication of the improvement effect on the kidney diseases. The observation period was eight weeks. Thus if all rats survived, the average survival time is eight weeks and it is an upper limit.

[5] = tested on: kidney disease model rats; assay: Renal function indicatory value (action to kidney diseases); format: in vivo, Sprague-Dawley female rats; conditions: 20 mg/kg/day per os, two weeks; for Creatinine clearance: 24 hours urine, control 0.20; for Creatinine / Urea nitrogen: serum; for Creatinine: control 2.0; for Urea nitrogen: control 100
Experimental: The kidney disease model rats were prepared as in Example 115. Twenty-five groups (8 rats per group) were sleeked in a manner so that there were no major differences between each group in the serum creatinine value and the urea nitrogen value indicating renal function. The rats in each group were allowed to freely take up feed and water. […] To the rats in the control group, only water was forcedly administered per os every day. After two weeks, 0.2 ml of blood was collected from the carotid artery of the rat under anesthesia, and centrifuged to obtain serum. Using 25 μl of the serum, serum creatinine (Scr) was measured by a creatinine analytical instrument (Beckman). Using 10 μl of the serum, urea nitrogen (BUN) was measured by a BUN analytical instrument (Beckman). Creatinine clearance was evaluated as follows:
After serum creatinine measurement, rats were placed in urinary metabolic cages for 24 hours to collect urine. Urinary creatine concentration (Ucr) was measured by a creatinine analytical instrument, and total volume of urination (Uvol) was also measured. Creatinine clearance (CCr) was calculated by the following formula: [formula]

[6] = mice, single oral 500 mg/kg, observed for 6 days, 5 per group

| SMILES | inhibition at 100 µM [1] | inhibition at 100 µM [2] | Number of deaths/number of survivals (mice; mouse, in vivo, po, 500 mg/kg) | Blood pressure [3] | Average survival time [4] | Creatinine clearance [5] | Creatinine [5] | Urea nitrogen [5] | Number of deaths/number of survivals (mice; [6]) | IC50 ([1]; tracer 3H angiotensin II, room temperature 3 hours, read-out: IC50 AT1) |
| --- | --- | --- | --- | --- | --- | --- | --- | --- | --- | --- |
| CCCCCCc1ccc(C(=O)N2CCOCC2)cc1NCc1ccc(C(=O)O)cc1 [Compound No. 75, 3-[(4-carboxyphenyl)methyl]amino-4-hexylbenzoic acid morpholide] | 15% | 0% | – | – | – | – | – | – | – | – |
| CCCCCN(C)c1ccc(C(=O)N2CCOCC2)cc1NCc1ccc(C(=O)O)cc1 [Compound No. 41, 4-(N-n-amyl-N-methyl)amino-3-[(4-carboxyphenyl)methyl]aminobenzoic acid morpholide] | 26% | 0% | 0/5 | 195 mmHg | 7.6 weeks | 0.36 mL/min | 1.6 mg/dL | 72 mg/dL | – | – |
| CCCCCN(C)c1ccc(S(=O)(=O)N2CCOCC2)cc1NCc1ccc(-c2ccccc2-c2nn[nH]n2)cc1 [Compound No. 595, 4-[[4-(N-n-amyl-N-methyl)amino-3-[[2'-(1H-tetrazol-5-yl)biphenyl-4-yl]methyl]aminobenzene]sulfonyl]morpholine] | 41% | 0% | 0/5 | 198 mmHg | 7.6 weeks | 0.38 mL/min | 1.5 mg/dL | 73 mg/dL | – | – |
| CCCCC(=O)N(Cc1ccc(C(=O)O)cc1)c1cc(C(=O)N2CCOCC2)ccn1 [Compound No. 467, 2-N-[[(4-carboxyphenyl)methyl]valeramido]isonicotinic acid morpholide] | 16% | 0% | 0/5 | 200 mmHg | 7.0 weeks | 0.25 mL/min | 1.8 mg/dL | 74 mg/dL | – | – |
| CCCCC(=O)Nc1ccc(C(=O)N2CCOCC2)cc1NCc1ccc(C(=O)O)cc1 [Compound No. 1, 3-[(4-carboxyphenyl)methylamino]4-valeramidobenzoic acid morpholide] | 33% | 0% | – | 196 mmHg | 7.1 weeks | 0.34 mL/min | 1.6 mg/dL | 75 mg/dL | 0/5 | – |
| CCCCC(=O)N(Cc1ccc(C(=O)O)cc1)c1cc(C(=O)N2CCOCC2)ccc1C(C)C [Compound No. 372, 3-N-[[(4-carboxyphenyl)methyl]valeramido]-4-isopropylbenzoicacid morpholide] | 2% | 0% | 0/5 | 190 mmHg | 7.6 weeks | 0.36 mL/min | 1.7 mg/dL | 72 mg/dL | – | – |
| CCCCCN(C)c1c(NCc2ccc(-c3ccccc3-c3nn[nH]n3)cc2)cc(S(=O)(=O)N2CCOCC2)cc1NC(=O)CCc1ccccc1 [Compound No. 599, 4-[[4-(N-n-amyl-N-methyl)amino-3-[[2'-(1H-tetrazol-5-yl)biphenyl-4-yl]methyl]amino-5-(3-phenylpropionamido)benzene]sulfonyl]morpholine] | 38% | 0% | 0/5 | 200 mmHg | 7.0 weeks | 0.35 mL/min | 1.5 mg/dL | 73 mg/dL | – | – |
| CCCCC(=O)N(Cc1ccc(-c2nn[nH]n2)cc1)c1cc(C(=O)N2CCOCC2)ccc1N(C)C [Compound No. 604, 4-dimethylamino-3-N-[[4-(1H-tetrazol-5-yl)phenylmethyl]valeramido]benzoic acid morpholide] | 15% | 0% | 0/5 | 200 mmHg | 7.0 weeks | 0.28 mL/min | 1.8 mg/dL | 75 mg/dL | – | – |
| CCCCC(=O)Nc1ccc(C(=O)N2CCOCC2)cc1NCc1ccc(-c2ccccc2-c2nnn[nH]2)cc1 [Compound No. 585, 3-[[2'-(1H-tetrazol-5-yl)biphenyl-4-yl]methylamino]-4-valeramidobenzoic acid morpholide] | – | 0% | – | 196 mmHg | 7.3 weeks | 0.35 mL/min | 1.6 mg/dL | 72 mg/dL | 0/5 | 1700 nM |
| CCCCC(=O)N(Cc1ccc(C(=O)O)cc1)c1cc(S(=O)(=O)N2CCOCC2)ccc1N(C)C [Compound No. 597, 4-[[3-N-[(4-carboxyphenyl)methyl]valeramido-4-dimethylaminobenzene]sulfonyl]morpholine] | 0% | 0% | – | – | – | – | – | – | – | – |
